≈ marks a conversion by molar mass, not a printed value.
How the values were obtained:
E. coli ATCC 25922 = test: MIC and MBC testing, broth microdilution; type: cell-based, Escherichia coli; details: Escherichia coli
Summary of the method: (§1)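 Two-fold serial dilutions of compounds (DMSO stocks) in MH broth, inoculated with log-phase bacteria at 1 × 10^6 CFU/mL and incubated 18 h at 37 °C. MIC is the lowest concentration with no visible growth; triplicates. Levofloxacin positive, 0.1% DMSO negative control.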

[1] = test system: clinical S. aureus isolate LMY46; test: MIC and MBC testing, broth microdilution; type: cell-based, Staphylococcus aureus; details: Staphylococcus aureus, LMY46
Summary of the method: (§2)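 Strains (clinical S. aureus LMY45, LMY46, LMY48; MRSA-1) grown to logarithmic phase, diluted to 1 × 10^6 CFU/mL and exposed 18 h at 37 °C to twofold serial compound dilutions in Mueller-Hinton broth, triplicates. Outputs are MIC and bactericidal concentration (MBC).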

MRSA-1 = test: MIC and MBC testing, broth microdilution; type: cell-based, Staphylococcus aureus; details: Staphylococcus aureus, MRSA-1
Summary of the method: as §2

[2] = test system: clinical S. aureus isolate LMY48; test: MIC and MBC testing, broth microdilution; type: cell-based, Staphylococcus aureus; details: Staphylococcus aureus, LMY48
Summary of the method: as §2

MRSA-2 = test: MIC and MBC testing, broth microdilution; type: cell-based, Staphylococcus aureus; details: Staphylococcus aureus, MRSA-2
Summary of the method: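 Triplicate broth microdilution: MH broth, serial 2× dilution of compounds dissolved in DMSO, 1 × 10^6 CFU/mL bacteria grown to log phase, 18 h at 37 °C, followed by MBC determination.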

[3] = test system: clinical S. aureus isolate LMY47; test: MIC and MBC testing, broth microdilution; type: cell-based, Staphylococcus aureus; details: Staphylococcus aureus, LMY47
Summary of the method: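 Broth microdilution in MH broth: 2-fold compound dilutions from DMSO stocks, log-phase clinical S. aureus isolates or MRSA-1 at 1 × 10^6 CFU/mL, 18 h at 37 °C, each concentration in triplicate. MIC recorded; MBC also determined.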

[4] = test system: clinical S. aureus isolate LMY45; test: MIC and MBC testing, broth microdilution; type: cell-based, Staphylococcus aureus; details: Staphylococcus aureus, LMY45
Summary of the method: as §2

A. baumannii ATCC 19606 = test: MIC and MBC testing, broth microdilution; type: cell-based, Acinetobacter baumannii; details: Acinetobacter baumannii
Summary of the method: as §1

[5] = test system: K. pneumoniae ATCC 700603; test: MIC and MBC testing, broth microdilution; type: cell-based, Klebsiella pneumoniae; details: Klebsiella pneumoniae
Summary of the method: as §1

E. faecium ATCC 35667 = test: MIC and MBC testing, broth microdilution; type: cell-based, Enterococcus faecium; details: Enterococcus faecium, ATCC35667, E. faecium ATCC 35667
Summary of the method: as §1

S. aureus ATCC 29213 = test: MIC and MBC testing, broth microdilution; type: cell-based, Staphylococcus aureus; details: Staphylococcus aureus, ATCC29213, S. aureus ATCC 29213
Summary of the method: as §1

[6] = test system: S. aureus, including MRSA; test: MIC testing, summary over S. aureus strains; type: cell-based; details: Staphylococcus aureus
Method: (§3) The minimum inhibitory concentration (MIC) of all synthesized compounds was tested by the broth microdilution method. In brief, compounds dissolved in DMSO were diluted twice continuously in a 96-well plate with MH broth. The ESKAPE pathogens (E. coli ATCC 25922, S. aureus ATCC 29213, K. pneumoniae ATCC 700603, A. baumannii ATCC 19606, P. aeruginosa ATCC 27853, and E. faecium ATCC 35667), clinical S. aureus isolates (LMY45, LMY46, LMY47, and LMY48) and methicillin-resistant Staphylococcus aureus (MRSA-1 and MRSA-2) were cultured in MH broth to logarithmic growth phase and then diluted to 1 × 10^6 CFU/mL in MH broth. Subsequently, the diluted bacterial solution was mixed with the diluted compound solution in a 96-well plate and incubated at 37 °C for a duration of 18 h. The MIC of the compounds was recorded as the lowest concentration at which no visible growth was observed. […] Each concentration was replicated thrice.

MRSA = test: MIC testing, summary over MRSA strains; type: cell-based; details: Staphylococcus aureus; against MRSA
Method: as §3

P. aeruginosa ATCC 27853 = test: MIC and MBC testing, broth microdilution; type: cell-based, Pseudomonas aeruginosa; details: Pseudomonas aeruginosa
Summary of the method: as §1

Which results are given for `[H]/N=C(\N)NN=C1CCCc2cc(OCC=C(C)C)ccc21` [Compound 2I, (E)-2-(6-((3-methylbut-2-en-1-yl)oxy)-3,4-dihydronaphthalen-1(2H)-ylidene)hydrazine-1-carboximidamide]?
MIC (E. coli ATCC 25922; ATCC25922, 18 h, read-out: MIC): 16 µg/mL (≈ 55.9 µM); MBC (E. coli ATCC 25922; ATCC25922, read-out: MBC): 32 µg/mL (≈ 112 µM); MIC ([1]; 18 h, read-out: MIC): 2 µg/mL (≈ 6.98 µM); MBC ([1]; read-out: MBC): 2 µg/mL (≈ 6.98 µM); MIC (MRSA-1; 18 h, read-out: MIC): 2 µg/mL (≈ 6.98 µM); MBC (MRSA-1; read-out: MBC): 16 µg/mL (≈ 55.9 µM); MIC ([2]; 18 h, read-out: MIC): 1 µg/mL (≈ 3.49 µM); MBC ([2]; read-out: MBC): 2 µg/mL (≈ 6.98 µM); MIC (MRSA-2; 18 h, read-out: MIC): 1 µg/mL (≈ 3.49 µM); MBC (MRSA-2; read-out: MBC): 2 µg/mL (≈ 6.98 µM); MIC ([3]; 18 h, read-out: MIC): 2 µg/mL (≈ 6.98 µM); MBC ([3]; read-out: MBC): 8 µg/mL (≈ 27.9 µM); MIC ([4]; 18 h, read-out: MIC): 2 µg/mL (≈ 6.98 µM); MBC ([4]; read-out: MBC): 4 µg/mL (≈ 14 µM); MIC (A. baumannii ATCC 19606; ATCC19606, 18 h, read-out: MIC): 16 µg/mL (≈ 55.9 µM); MBC (A. baumannii ATCC 19606; ATCC19606, read-out: MBC): 32 µg/mL (≈ 112 µM); MIC ([5]; ATCC700603, 18 h, read-out: MIC): 32 µg/mL (≈ 112 µM); MBC ([5]; ATCC700603, read-out: MBC): > 32 µg/mL; MIC (E. faecium ATCC 35667; 18 h, read-out: MIC): 8 µg/mL (≈ 27.9 µM); MBC (E. faecium ATCC 35667; read-out: MBC): 32 µg/mL (≈ 112 µM); MIC (S. aureus ATCC 29213; 18 h, read-out: MIC): 4 µg/mL (≈ 14 µM); MBC (S. aureus ATCC 29213; read-out: MBC): 32 µg/mL (≈ 112 µM); MIC [6]: 0.5 to 4 µg/mL (≈ 1.75 to 14 µM); MIC (MRSA): 1 to 2 µg/mL (≈ 3.49 to 6.98 µM); MIC (P. aeruginosa ATCC 27853; ATCC27853, 18 h, read-out: MIC): 32 µg/mL (≈ 112 µM); MBC (P. aeruginosa ATCC 27853; ATCC27853, read-out: MBC): 32 µg/mL (≈ 112 µM)

— paper PMC12250302, “Synthesis, Antimicrobial Activities, and Model of Action of Novel Tetralone Derivatives Containing Aminoguanidinium Moiety” (International Journal of Molecular Sciences, 2025)
